The subject of data set [1] is HLM. More on the design: method as in ref (Pearce et al., 2002). As to conditions: Other enzymes were combined; ref (Pearce et al., 2002); cited from earlier work.
The test system of data set [2] is HLM. The experiment in a line: Additional (unassigned) intrinsic clearance. As to conditions: Added to recover degree of auto-induction via enzymes other than CYP3A4.
Data set [3] relates to CYP3A. Put plainly: in vitro. As to conditions: human, cryopreserved human hepatocytes, probe testosterone (6β-hydroxytestosterone formation).
For data set [4], the system named is rCYP2C8. Details: method as in ref (Cazali et al., 2003). As to conditions: ref (Cazali et al., 2003); cited from earlier work.
Data set [5] relates to rCYP3A4. As to conditions: ref (Cazali et al., 2003), (Huang et al., 2004), cited from earlier work.
The conditions of data set [6]: cited from earlier work.
Data set [7] deals with CYP3A. As to conditions: mean of four human hepatocyte donors; three-parameter fit; Indmax = Emax + 1.
The conditions of data set [8]: cited from earlier work. This is another data set of the same source.
Data set [9] has as its system CYP3A. Put plainly: in vitro. As to conditions: human, cryopreserved human hepatocytes.
The conditions of data set [10]: cited from earlier work. This is another data set of the same source.
The conditions of data set [11]: cited from earlier work. The source holds these as a separate data set.
The test system of data set [12] is rCYP3A5. As to conditions: ref (Huang et al., 2004), cited from earlier work.
For data set [13] the following is noted: Neutral; ref (Zhu et al., 2002); (Lombardo et al., 2000); (Henczi et al., 1995) and 4 others; cited from earlier work.
Data set [14] has as its system rUGT2B7. Details: method as in ref (Staines et al., 2004). As to conditions: ref (Staines et al., 2004); cited from earlier work.
Data set [15] has as its system CYP3A. As to conditions: mean of four human hepatocyte donors; three-parameter fit; Indmax = Emax + 1. This is another data set of the same source.
The conditions of data set [16]: cited from earlier work. The source holds these as a separate data set.
For data set [17] the following is noted: human, in vivo.
The conditions of data set [18]: Monoprotic Acid; ref Meta-analysis (Pade and Stavchansky, 1998); (Avdeef et al., 2000); (Taillardat-Bertschinger et al., 2002); (Loeuillet-Ritzler and Faller, 2004); cited from earlier work.
For data set [19], the system named is CYP2C9. Details: method as in ref (Sahi et al., 2009). As to conditions: ref (Sahi et al., 2009), cited from earlier work.
In data set [20] the test system is CYP2B6. More on the design: method as in ref (Hariparsad et al., 2008). As to conditions: ref (Hariparsad et al., 2008), cited from earlier work.
Data set [21] relates to rCYP2C19. As to conditions: read-out: rCYP2C19 Km; ref (Giancarlo et al., 2001); (Bajpai et al., 1996); cited from earlier work.
In data set [22] the test system is rCYP2C9. The experiment in a line: Recombinant enzyme metabolism kinetics, rCYP2C9. As to conditions: Calculated from CLiv using retrograde model.
Data set [23] is described as follows: in vitro. As to conditions: human, human liver microsomes.
For data set [24], the system named is rCYP2C9. As to conditions: read-out: rCYP2C9 Km; ref (Rowland et al., 2008); cited from earlier work.
Data set [25] has as its system rCYP2C19. Put plainly: Recombinant enzyme metabolism kinetics, rCYP2C19. As to conditions: Calculated from CLiv using retrograde model.

SMILES strings stand for the structures. Read-outs that look alike come from different tables or passages of the source.

What is called Km is the concentration of substrate that gives half-maximal velocity. What is called logP is the decadic logarithm of the partition coefficient of the neutral form, usually between octanol and water. Take `NC(=O)N1c2ccccc2C=Cc2ccccc21` [Carbamazepine, carbamazepine]: the “Add HLM CLint” value in [1] was 0.255 µL/min/mg. For the same compound, the “Add rCYP CLint” value in data set [2] came out at 0.010 µL/min/pmol. The EC50 in data set [3] worked out at 59.1 µM; in data set [9] it was 58.7 µM. Also, the Km is 742 µM in data set [4], 180 µM in data set [5] (read-out: rCYP3A4 Km), 332 µM in data set [12] (read-out: rCYP3A5 Km) and 25.4 µM in data set [14]. In addition, in [4], the “rCYP2C8 Vmax” value is recorded as 0.03 pmol/min/pmol. The “rCYP3A4 Vmax” value in data set [5] was 0.72 pmol/min/pmol. Further, in [6] (parent carbamazepine, ref (Kim et al., 2005)), the CLR is reported as 0.0084 L/h. The “Activity Indmax” value in [7] came out at 16.6 fold. In addition, the fu in data set [8] (ref Meta-analysis (Grimsley et al., 1991), (Di Salle et al., 1974), (Rawlins et al., 1975) and 4 others) is listed as 0.25. The ka in [10] (ref (Geradin et al., 1976), (Grimsley et al., 1991), (Olling et al., 1999), (Wong et al., 1983)) is 0.5 h⁻¹. Besides, in data set [10] (ref (Tchaparian et al., 2008), (Faigle and Feldmann, 1975), (Levy et al., 1975)), the fa is 0.84. The “B:P” value in [11] (ref Meta-analysis (Bonneton et al., 1992), (de Groot et al., 1984)) was 1.07. In addition, the “rCYP3A5 Vmax” value in [12] was 1.44 pmol/min/pmol. The logP in data set [13] is listed as 2.22. Also, in data set [14], the “rUGT2B7 Vmax” value is 4.18 pmol/min/pmol. Further, the “mRNA Indmax” value in data set [15] was 21.9 fold. The “Vss (Minimal PBPK)” value in data set [16] (ref (Ramsay et al., 1990)) is listed as 0.78 L/kg.
For the compound `CCC1(c2ccccc2)C(=O)NC(=O)NC1=O` [Phenobarbital, phenobarbital], in data set [6] (in vivo), the CLR was 0.07 L/h and the fe is 0.24. Further, the “Activity Indmax” value in data set [7] was 21.1 fold. For the same compound, the fa in data set [10] (ref (Varma et al., 2012)) is 1. This compound came in with a ka in [17] of 2 h⁻¹. For the same compound, the “mRNA Indmax” value in data set [15] was 44.2 fold. Besides, the “Vss (Minimal PBPK)” value in data set [16] (in vivo) is recorded as 0.54 L/kg.
As a reminder, the microsomal CLint is a measure of how fast metabolising enzymes remove a compound, apart from limits set by blood flow. A higher microsomal CLint goes with rapid turnover. `O=C1NC(=O)C(c2ccccc2)(c2ccccc2)N1` [Phenytoin, phenytoin]: the EC50 is 51.3 µM in data set [3], 9.8 µM in data set [19] (read-out: CYP2C9 IndC50), 123 µM in [9] and 15.3 µM in data set [20] (read-out: CYP2B6 IndC50). Also, the “pKa(s)” value in data set [18] is reported as 8.15. For the same compound, the CLR in data set [6] (from fe 0.008, ref (Kozelka and Hine, 1943), (Borga et al., 1979)) is recorded as 0.015 L/h. For the same compound, the fe in data set [6] (ref (Kozelka and Hine, 1943), (Borga et al., 1979)) was 0.008. Moreover, the CLiv in data set [6] (ref Meta-analysis (Gugler et al., 1976), (Glazko et al., 1969), (Lund et al., 1974), (Perucca et al., 1978)) was 1.88 L/h. Also, the “Activity Indmax” value in data set [7] is listed as 13.6 fold. Moreover, the “CYP2C9 Indmax (Fold, Emax +1)” value in data set [19] is 10.7 Fold. For the same compound, in data set [8] (ref Meta-analysis (Odar-Cederlof and Borga, 1974), (Tassaneeyakul et al., 1992), (Ducharme et al., 1995) and 3 others), the fu is on record as 0.10. The fa in data set [10] (ref (Bochner et al., 1973)) is on record as 0.9. Moreover, the ka in data set [10] (ref (Tassaneeyakul et al., 1992)) was 0.53 h⁻¹. In data set [20], the “CYP2B6 Indmax (Fold, Emax +1)” value is given as 1.9 Fold. The figures for the Km in [21] and in data set [24] were 36.8 µM and 4.1 µM, respectively. For the same compound, in data set [11] (ref (Kurata and Wilkinson, 1974)), the “B:P” value was 0.61. In data set [22], the “rCYP2C9 Vmax” value is 0.24 pmol/min/pmol. For the same compound, the intrinsic clearance (microsomal CLint) in data set [23] is 0.97 µL/min/mg. For the same compound, the “mRNA Indmax” value in [15] worked out at 24.5 fold. The “Vss (Minimal PBPK)” value in data set [16] (ref Meta-analysis (Gugler et al., 1976), (Odar-Cederlof and Borga, 1974), (Glazko et al., 1969), (Lund et al., 1974), (Perucca et al., 1978)) is listed as 0.57 L/kg. In addition, the “rCYP2C19 Vmax” value in data set [25] is listed as 1.53 pmol/min/pmol.

The record behind these values is PMC4885489, “Prediction of Drug-Drug Interactions Arising from CYP3A induction Using a Physiologically Based Dynamic Model” (Drug Metabolism and Disposition, 2016).
